Like-named read-outs stand apart in the source and are kept apart here.
Tests used:
Nae I [1] = molecular target: T1, Nae I (Lentzea aerocolonigenes, UniProt P50187); experiment: Activation of Nae I cleavage of M13mp18 RFI DNA; assay type: biochemical, Nocardia aerocolonigenes; parameters: key to Activation of Nae I cleavage of M13mp18 RF1 DNA: ++++: full activation; ++: about 50% activation; -: no activation
T1 sequence (P50187 1-317): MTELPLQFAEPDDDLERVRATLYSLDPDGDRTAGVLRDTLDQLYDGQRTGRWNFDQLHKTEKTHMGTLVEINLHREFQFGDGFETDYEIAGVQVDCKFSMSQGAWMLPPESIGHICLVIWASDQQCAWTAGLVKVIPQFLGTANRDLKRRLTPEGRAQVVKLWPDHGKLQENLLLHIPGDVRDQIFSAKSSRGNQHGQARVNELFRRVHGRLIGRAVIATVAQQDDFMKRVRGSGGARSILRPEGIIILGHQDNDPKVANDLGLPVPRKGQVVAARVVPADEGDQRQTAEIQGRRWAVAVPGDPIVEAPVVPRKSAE

Nae I [2] = molecular target: T1, Nae I; conditions: 2 mM spermidine, SV40 DNA 2.9 nM, 1.1 units Nae I, 1 hour 37° C.
Nae I [3] = molecular target: T1, Nae I; experiment: biochemical; conditions: 1 h, read-out: Increase in Nae I cleavage of SV40 slow site

GGGCGCCGGCGGTG (chemistry not given here) [Oligonucleotide duplex 3]
Activation of Nae I cleavage of M13mp18 RF1 DNA (Nae I [1]): ++ (key: ++++: full activation; ++: about 50% activation; -: no activation)

GCCGGCGGTGTGGGCAGCTGGTG (chemistry not given here) [Oligonucleotide duplex 6]
Activation of Nae I cleavage of M13mp18 RF1 DNA (Nae I [1]): -

CTGGTGGTGGGCGCCGGC (chemistry not given here) [Oligonucleotide duplex 5]
Activation of Nae I cleavage of M13mp18 RF1 DNA (Nae I [1]): -

TGGTGGGCGCCGGCGGTGTGGGCA (TTGGTGGGCGCCGGCGGTGTGGGCA; chemistry not given here) [Oligonucleotide duplex 2]
Activation of Nae I cleavage of M13mp18 RF1 DNA (Nae I [1]): ++++

GCCGGC (chemistry not given here) [Oligonucleotide duplex 7]
Activation of Nae I cleavage of M13mp18 RF1 DNA (Nae I [1]; compared to cleavage caused by an equal concentration of pBR322 Nae I sites): -

GGGTGCCGGCAGGG (chemistry not given here) [SEQ ID NO: 8]
Activation as activating sequence for Nae I (Nae I [1]; procedures of Example 1): 100%

NCCCCNCCCN [spermidine]
Spermidine concentration needed to mimic the effect of 1 mM at low salt (Nae I [1]; 1 mM Mg2+ and 50 mM Na+): 6 mM | Spermidine concentration at which the switch occurs (inhibition in presence of activating DNA) (Nae I [1]; 50 mM NaCl and 10 mM MgCl2): 8 mM | Spermidine concentration at which the switch occurs (inhibition in presence of activating DNA) (Nae I [1]; low salt concentration): 1 mM | Effect on cleavage of resistant Nae I sites such as in M13mp18 DNA (Nae I [1]; spermidine at 1 mM, low salt): greatly activated | Spermidine concentration that switches on Nae I cleavage of resistant sites (Nae I [1]; spermidine by itself, low salt conditions): about 1 mM | Nae I cleavage of SV40 slow site (Nae I [2]): 17% | fold induction at 2000 µM (Nae I [3]): 40

GCGCCGGCGG (chemistry not given here) [Oligonucleotide duplex 4]
Activation of Nae I cleavage of M13mp18 RF1 DNA (Nae I [1]): -
